# Patent publication US20080234202A1, “Non-natural amino acids and neurotensin analogues” (priority 2004, published 2008)
# Where a SMILES comes first, the peptide text is derived from it. [ ]: non-standard residue; d: D form. The star is where a group is joined. Tle = CC(C)(C)[C@H](N)C(=O)O; X1 = C[C@@H](CCCCCN)C(=O)*
# Assays:
# [1] = target: T1, CYP2B6 (Homo sapiens, UniProt P20813); assay: Liver CYP screening: CYP2B6; details: 10^−3, 10^−2, 0.1 M
# T1 sequence (P20813 1-491): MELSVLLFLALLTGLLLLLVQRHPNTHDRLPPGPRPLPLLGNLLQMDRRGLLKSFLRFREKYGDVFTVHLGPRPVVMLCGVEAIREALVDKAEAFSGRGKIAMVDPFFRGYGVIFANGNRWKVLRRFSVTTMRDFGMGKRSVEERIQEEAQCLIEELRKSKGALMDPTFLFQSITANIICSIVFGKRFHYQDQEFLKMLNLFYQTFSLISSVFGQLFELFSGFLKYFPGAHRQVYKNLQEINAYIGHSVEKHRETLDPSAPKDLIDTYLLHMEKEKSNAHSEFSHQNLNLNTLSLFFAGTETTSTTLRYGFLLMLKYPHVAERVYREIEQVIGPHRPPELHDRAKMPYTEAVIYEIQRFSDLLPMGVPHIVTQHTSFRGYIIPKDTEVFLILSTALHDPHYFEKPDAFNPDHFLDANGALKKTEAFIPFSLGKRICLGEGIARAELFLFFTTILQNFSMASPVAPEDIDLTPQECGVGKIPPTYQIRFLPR
# Description: (§1) Liver Receptor Screening (Stanford Research Institute Study B213-06).
# [2] = target: CYP2C9 (Homo sapiens, UniProt P11712); assay: Liver CYP screening: CYP2C9; details: 10^−3, 10^−2, 0.1 M
# Chain of CYP2C9 (P11712 whole entry): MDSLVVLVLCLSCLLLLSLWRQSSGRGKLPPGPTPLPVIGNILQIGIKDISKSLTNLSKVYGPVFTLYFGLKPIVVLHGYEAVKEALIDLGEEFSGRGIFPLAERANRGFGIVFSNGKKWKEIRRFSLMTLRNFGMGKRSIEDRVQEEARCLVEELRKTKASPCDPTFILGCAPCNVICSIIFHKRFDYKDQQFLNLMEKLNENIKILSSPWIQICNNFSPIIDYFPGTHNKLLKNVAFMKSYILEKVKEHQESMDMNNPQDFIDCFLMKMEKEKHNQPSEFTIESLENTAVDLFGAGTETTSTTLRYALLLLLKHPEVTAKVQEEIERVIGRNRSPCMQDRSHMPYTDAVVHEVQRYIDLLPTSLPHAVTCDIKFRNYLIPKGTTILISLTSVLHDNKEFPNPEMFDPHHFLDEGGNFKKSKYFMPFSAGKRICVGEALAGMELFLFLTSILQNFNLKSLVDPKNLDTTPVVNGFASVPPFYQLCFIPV
# Description: as §1
# [3] = Experimental: These samples were used for the determination of plasma drug by LC/MS/MS for estimating pharmacokinetic parameters and segmental absorption. The bioavailability of intra-stomach, intra-duodenum, intra-jejunum, intra-colon administration relative to intravenous administration and gavage was calculated.
# [4] = target: CYP3A4 (Homo sapiens, UniProt P08684); assay: Liver CYP screening: CYP3A4; details: 10^−3, 10^−2, 0.1 M
# Chain of CYP3A4 (P08684 whole entry): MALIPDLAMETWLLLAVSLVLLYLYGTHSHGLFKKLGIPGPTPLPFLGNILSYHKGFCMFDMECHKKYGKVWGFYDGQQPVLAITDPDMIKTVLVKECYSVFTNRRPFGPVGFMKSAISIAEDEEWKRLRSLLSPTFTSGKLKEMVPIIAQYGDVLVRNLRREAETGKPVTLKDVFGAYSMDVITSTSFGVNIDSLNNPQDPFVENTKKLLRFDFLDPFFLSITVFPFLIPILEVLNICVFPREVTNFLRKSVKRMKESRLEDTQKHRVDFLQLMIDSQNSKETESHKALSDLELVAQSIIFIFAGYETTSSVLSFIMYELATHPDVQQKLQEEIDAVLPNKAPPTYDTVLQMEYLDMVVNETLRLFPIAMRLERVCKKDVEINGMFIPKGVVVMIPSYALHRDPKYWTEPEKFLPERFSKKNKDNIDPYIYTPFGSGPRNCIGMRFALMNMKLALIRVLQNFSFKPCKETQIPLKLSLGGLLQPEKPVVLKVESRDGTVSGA
# Description: as §1
# [5] = 5 or 30 min incubation at 37° C.
# [6] = Acute toxicity, clinical observation and maximum tolerated dose in rats; assay type: in vivo, rat
# Experimental: During the 2 and 24 hour post-dosing clinical observation periods, measurements of core body temperatures were taken.
# [7] = system: mouse bone marrow cells; assay: Micronucleus study; assay type: in vivo; details: oral, CD-1 mice; initial data
# Experimental: Genetic Toxicology. […] Experimental protocols are as follows.
# In the micronucleus study, 90 CD-1 mice used in the study consisted of 10/sex/group in Groups 1-4 (control, low-, mid-, and high-dose) and 5/sex in the positive control group. Test peptide as administered orally, the positive control, Cyclophosphamide at 80 mg/kg, as administered orally. Approximately 24 and 48 hours after dosing, mice were killed and bone marrow obtained from both femurs. A slide of a bone marrow suspension was prepared, stained with Wright-Giemsa stain, dried, and scored blind. The number of polychromatic erythrocytes (PCE) among the total erythrocytes (PCE+normochromatic erythrocytes (NCE)) were determined for each animal by counting at least 200 erythrocytes. The number of micronucleated polychromatic erythrocytes (MPCE) then were scored for 2000 PCE per animal. A positive result was obtained if there is a positive dose-response trend or statistically significant increase in the number of MPCE at one or more dose levels compared to controls.
# [8] = target: T2, CYP1A2 (Homo sapiens, UniProt P05177); assay: Liver CYP screening: CYP1A2; details: 10^−3, 10^−2, 0.1 M
# T2 sequence (P05177 1-516): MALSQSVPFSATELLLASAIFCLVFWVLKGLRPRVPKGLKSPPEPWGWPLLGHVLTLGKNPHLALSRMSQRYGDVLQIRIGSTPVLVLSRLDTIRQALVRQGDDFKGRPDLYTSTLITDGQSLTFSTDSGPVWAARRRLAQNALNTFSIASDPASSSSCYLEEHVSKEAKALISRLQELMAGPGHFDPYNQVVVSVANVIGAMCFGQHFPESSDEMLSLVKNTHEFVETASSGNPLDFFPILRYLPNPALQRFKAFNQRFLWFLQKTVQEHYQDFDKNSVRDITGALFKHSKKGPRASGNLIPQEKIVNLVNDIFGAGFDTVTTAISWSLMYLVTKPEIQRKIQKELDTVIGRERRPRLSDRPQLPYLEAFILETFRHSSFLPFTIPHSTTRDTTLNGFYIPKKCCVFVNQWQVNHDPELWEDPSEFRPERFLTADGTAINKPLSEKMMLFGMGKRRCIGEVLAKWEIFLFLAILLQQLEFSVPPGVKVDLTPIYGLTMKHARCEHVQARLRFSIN
# Description: as §1
# [9] = Blood and plasma pharmacokinetics of ABS201 in rats
# Description: At selected time points, blood was removed or brain harvested and the concentration of the peptide analog determined using LC/MS/MS.
# These samples were then used for the determination of plasma and brain drug levels by LC/MS/MS for estimating BBB penetration and pharmacokinetic parameters.
# [10] = target: hERG (human ether-a-go-go related gene) channels (Homo sapiens, UniProt Q12809); details: HEK293, 35±2° C.; initial results
# Chain of hERG (human ether-a-go-go related gene) channels (Q12809 whole entry): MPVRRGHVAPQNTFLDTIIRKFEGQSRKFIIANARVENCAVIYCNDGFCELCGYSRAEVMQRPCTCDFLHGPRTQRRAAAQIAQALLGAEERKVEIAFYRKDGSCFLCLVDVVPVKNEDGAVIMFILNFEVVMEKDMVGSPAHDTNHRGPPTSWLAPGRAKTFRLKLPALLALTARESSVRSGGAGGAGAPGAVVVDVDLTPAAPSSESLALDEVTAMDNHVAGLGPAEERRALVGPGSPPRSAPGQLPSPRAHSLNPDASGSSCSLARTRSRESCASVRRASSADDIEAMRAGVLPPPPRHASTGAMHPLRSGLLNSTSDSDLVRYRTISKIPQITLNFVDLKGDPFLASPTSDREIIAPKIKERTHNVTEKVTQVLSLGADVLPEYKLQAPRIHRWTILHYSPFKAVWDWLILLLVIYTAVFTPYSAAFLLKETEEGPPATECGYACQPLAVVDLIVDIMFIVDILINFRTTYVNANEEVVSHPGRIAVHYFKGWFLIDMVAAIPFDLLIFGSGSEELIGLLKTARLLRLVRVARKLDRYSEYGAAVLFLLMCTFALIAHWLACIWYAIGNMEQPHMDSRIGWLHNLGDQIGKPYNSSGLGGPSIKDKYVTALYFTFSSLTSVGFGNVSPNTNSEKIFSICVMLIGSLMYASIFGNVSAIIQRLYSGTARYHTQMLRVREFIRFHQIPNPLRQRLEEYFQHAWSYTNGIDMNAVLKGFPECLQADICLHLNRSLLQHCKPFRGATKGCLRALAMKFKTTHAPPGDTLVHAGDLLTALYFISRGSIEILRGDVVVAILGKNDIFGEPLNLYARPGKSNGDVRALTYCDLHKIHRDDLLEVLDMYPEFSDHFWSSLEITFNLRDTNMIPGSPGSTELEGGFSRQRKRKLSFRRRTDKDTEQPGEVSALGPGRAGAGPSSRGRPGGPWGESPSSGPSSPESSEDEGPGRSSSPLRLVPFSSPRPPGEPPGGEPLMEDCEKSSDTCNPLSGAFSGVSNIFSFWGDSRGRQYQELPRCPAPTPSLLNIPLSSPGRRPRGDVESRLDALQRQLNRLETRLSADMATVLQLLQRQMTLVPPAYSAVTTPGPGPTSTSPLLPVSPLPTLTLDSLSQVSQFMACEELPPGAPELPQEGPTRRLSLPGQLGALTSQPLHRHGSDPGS
# Experimental: hERG Assay. The objective of the hERG study is to assess the effects of the test article on the rapidly activating inward rectifying potassium current (IKr) conducted by hERG (human ether-a-go-go related gene) channels stably expressed in a HEK293 cell line. The method used is as follows. HEK293 cells, stably transfected with hERG cDNA, were used in the study. All experiments were performed at near-physiological temperature (35±2° C.). A positive control (60 nM terfenadine) was applied to two cells (n≧2). Cells were be transferred to the recording chamber and superfused with HB-PS solution. The recording chamber and bathing solution were maintained at a temperature of 35±2° C. using a combination of in-line solution pre-heater, chamber floor heater, and feedback temperature controller. Bath temperature were measured using a thermistor probe.
# Patch pipettes were made from glass capillary tubing using a P-97 micropipette puller (Sutter Instruments, Calif.). A commercial patch clamp amplifier was used for whole cell recordings. Before digitization, current records were low-pass filtered at one-fifth of the sampling frequency.
# Cells stably expressing hERG were held at −80 mV.
# [11] = Catalepsy, horizontal bar test; details: Table 11
# Experimental: Cataleptic Analysis. In laboratory tests, catalepsy is characterized by the inability of an animal to correct its position after placement in an unnatural posture. […] To circumvent these potential confounding factors, tests are performed on an animal only once in a quiet, controlled environment.
# Catalepsy Assessment. […] Rats were given an IP injection of peptide (5 mg/Kg), saline, or haloperidol (1 mg/kg). After 3 hours, catalepsy was measured using the horizontal bar test. Briefly, the front paws were placed directly on a horizontal bar 5 mm in diameter placed 7.5 cm above the cage floor. The rat was held in this position for 3 sec and then released. The time from release until the paws return to the cage floor was measured and recorded. A cut-off time of 30 sec was observed; this indicated a fully cataleptic animal as cataleptic animals are frozen to the bar. […] Measures were repeated every 30 min for 4 hr. Data are means±SEM (p<0.01).
# After 2 h, catalepsy was measured using the horizontal bar test. Data are means±SEM (p<0.01).
# [12] = target: CYP2C19 (Homo sapiens, UniProt P33261); assay: Liver CYP screening: CYP2C19; details: 10^−3, 10^−2, 0.1 M
# Chain of CYP2C19 (P33261 whole entry): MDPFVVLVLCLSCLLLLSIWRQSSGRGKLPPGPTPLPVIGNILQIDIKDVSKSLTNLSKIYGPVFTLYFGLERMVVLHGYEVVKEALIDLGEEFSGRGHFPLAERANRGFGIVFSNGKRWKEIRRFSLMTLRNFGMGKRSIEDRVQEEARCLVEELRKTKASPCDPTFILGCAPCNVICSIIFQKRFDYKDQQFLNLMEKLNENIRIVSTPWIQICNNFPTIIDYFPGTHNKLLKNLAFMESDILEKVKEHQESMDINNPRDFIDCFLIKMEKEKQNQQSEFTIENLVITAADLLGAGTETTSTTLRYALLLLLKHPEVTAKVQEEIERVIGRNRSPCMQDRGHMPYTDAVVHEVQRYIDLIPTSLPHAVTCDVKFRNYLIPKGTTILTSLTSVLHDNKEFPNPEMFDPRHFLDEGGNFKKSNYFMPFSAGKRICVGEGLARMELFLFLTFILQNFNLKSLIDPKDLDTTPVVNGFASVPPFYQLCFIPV
# Description: as §1
# [13] = target: CYP2D6 (Homo sapiens, UniProt P10635); assay: Liver CYP screening: CYP2D6; details: 10^−3, 10^−2, 0.1 M
# Chain of CYP2D6 (P10635 whole entry): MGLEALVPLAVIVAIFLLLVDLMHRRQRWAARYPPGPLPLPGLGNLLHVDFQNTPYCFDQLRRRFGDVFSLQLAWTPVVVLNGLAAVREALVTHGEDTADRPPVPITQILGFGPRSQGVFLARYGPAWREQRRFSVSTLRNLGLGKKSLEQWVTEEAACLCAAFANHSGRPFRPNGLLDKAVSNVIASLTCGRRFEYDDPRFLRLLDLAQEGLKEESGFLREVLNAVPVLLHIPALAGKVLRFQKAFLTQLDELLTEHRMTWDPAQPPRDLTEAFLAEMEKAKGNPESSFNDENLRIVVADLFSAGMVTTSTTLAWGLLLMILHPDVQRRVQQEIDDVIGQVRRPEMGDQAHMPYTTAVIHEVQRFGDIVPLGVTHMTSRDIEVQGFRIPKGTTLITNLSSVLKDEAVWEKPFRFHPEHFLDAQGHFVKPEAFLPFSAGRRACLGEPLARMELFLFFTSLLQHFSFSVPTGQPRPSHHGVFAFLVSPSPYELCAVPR
# Description: as §1
# [14] = whole blood, 5 or 30 min at 37° C.
smiles,measurement,setting,value
"CC(C)C[C@H](NC(=O)[C@@H](NC(=O)[C@H](Cc1ccc(O)cc1)NC(=O)[C@@H]1CCCN1C(=O)[C@H](CCCNC(=N)N)NC(=O)[C@@H](C)CCCCCN)C(C)(C)C)C(=O)O [ABS201, hLys-Arg-Pro-Tyr-t-Leu-Leu] (X1-RPY[Tle]L-OH)",inhibition of substrate binding,[1],No inhibition
same,inhibition of substrate binding,[2],No inhibition
same,segment with maximal uptake,[3]; in situ looped models,intra-duodenum exhibiting the maximal amount of uptake
same,site of absorption in the GI tract,[3]; in situ looped models,absorbed almost entirely in the intestine
same,uptake in the stomach,[3]; intra-stomach,Virtually no ABS201 is taken up in the stomach
same,inhibition of substrate binding,[4],No inhibition
same,binding to plasma proteins,[5],little or no binding
same,lower limit for the MTD,"[6]; rat, in vivo",≥ 100 times the ED50
same,"Toxicity, dose without toxicity",[6]; single acute dose I.P.,(>100 × ED50)
same,Toxicity,[6]; single acute dose at 100x ED50 administered I.P.,No
same,micronucleus study result,[7],inactive
same,inhibition of substrate binding,[8],No inhibition
same,time by which plasma levels decreased below the LLOD,[9]; IV 1 mg/kg,≤ 45 min
same,clearance as % of rat hepatic blood flow,[9]; IV 5 mg/kg,74.02%
same,time over which measurable in whole blood,[9]; IV 5 mg/kg,up to 120 minutes
same,time over which detectable in the blood and brain,"[9]; IV 5 mg/kg or oral 50 mg/kg, LC/MS/MS",up to 120 minutes
same,hERG study result,[10],inactive
same,Catalepsy,[11],No
same,inhibition of substrate binding,[12],No inhibition
same,inhibition of substrate binding,[13],No inhibition
same,distribution into blood cellular elements,[14],about 33%
